Laboratory results reported in patent publication US4440757A, “Pharmaceutical composition comprising derivative of aminobenzoic acid for regulating prostaglandin” (priority 1978, dated 1984).

Experiments:
male SHR rats = experiment: Blood pressure and 6-keto PGF1-α in blood of SHR after 14 days; type: in vivo, rat (SHR); settings: 100 mg/kg/day p.o.; for Content of 6-keto-PGF1-α in blood: control 3; for Blood pressure: control 195
Experimental: After forcibly administering the present substance (Specimens Nos. 4, 7 and 8) every day for successive 14 days at a rate of 100 mg/kg/day by oral route to groups of male SHR rats, their whole blood was collected on 15th day to obtain the plasma fraction. The ether-extract of the plasma fraction was separated and isolated by thin-layer chromatography and after converting the isolated fraction into methyloximesilyl derivatives, the alteration of 6-keto PGF1-α was examined by gas-chromatography and mass-spectroscopy. In the group to which the present substance was administered, the content of 6-keto PGF1-α was larger together with the reduced blood pressure than in control. This parallelism of the effects leads to the presumption that the effect of the present invention is mediated by prostaglandin.

cats = experiment: Pyrexia caused by pyrogen (Shigella dysentriae o-antigen) and PGE in c.s.f.; type: in vivo, cat
Experimental: The experiments were carried out on cats weighing 3 to 3.5 kg. In an aseptic operation under intraperitoneally administered sodium pentobarbitone at 36 mg/kg, a Collison cannula was implanted into the rostral part of the third ventricle of the cat.
A few days after implantation of the cannula, when the cat had recovered from the operation, specimens of cerebrospinal fluid were collected without anesthesia, whilst the cat was kept unrestrained in its cage, and its rectal temperature was recorded.
The specimens of cerebrospinal fluid (c.s.f.) were assayed immediately after collection, or after having been stored at -2° for 24 to 48 hours, and the determination of PGE in the specimens was carried out as in Example 9 using ^3 H-Prostaglandin E Radioimmunoassay Kit (manufactured by Clinical Assay Co., USA). Rectal temperature was recorded at room temperature (21° to 23° C.) with the thermistor probe inserted about 10 cm deep into the rectum.
As the pyrogen, somatic type o-antigen of Shigella dysentriae was used, and after dissolving 75 ng of the pyrogen into 0.15 ml of a pyrogen-free artificial c.s.f., the solution was injected into the third ventricle through the implanted cannula to induce fever.
After 2 hours of administration, the rectal temperature was measured to confirm the occurrence of pyrexia and then the present substance (each of Specimens Nos. 4, 7 and 8) was forcibly administered orally as an aqueous solution in distilled water at a rate of 100 mg/kg, control being administered only with distilled water in this time.
The rectal temperature of all animals was measured after one hour of the administration of the present substance.
The c.s.f. for the determination of its content of PGE was collected respectively before and after 2 hours of the injection of the pyrogen and after one hour of the administration of the present substance.

[1] = system: lymphocytes from the spleen of a BALB/C mouse; experiment: PGs metabolism of 3H-arachidonic acid taken into lymphocytes; type: cell-based; design: key: -: no change was observed; ±: change was slightly observed; +: change was clearly observed; settings: 500 μg/ml, 37° C., 60 min
Experimental: After adjusting the lymphocytes taken from the spleen of a BALB/C mouse to a concentration of 1×10^7 cells/ml, 2 μCi of ^3 H-arachidonic acid was added and the mixture was incubated at a temperature of 37° C. for 90 min. The incubated lymphocytes were washed three times with the culture medium. After again ajusting the cells to a concentration of 1×10^7 cells per ml, the culture were poured into four siliconized test tubes in an amount of 2 ml/tube. Two test tubes were used as control, and into each of the remaining two test tubes, 500 μg of the present substance, in this Example, Specimen No. 7 was added, and then the four test tubes were incubated at 37° C. for 60 min. After incubation, the test tubes were centrifugated at 0° C. for 5 min. at 1,200 rpm.
The thus obtained pellets of cells were taken into a vial containing 2 ml of the culture medium and after adding 5 ml of petroleum ether, the vial was shaken and the ether layer was removed, the remaining aqueous layer being adjusted to pH of 3.5 by aqueous 0.5 N hydrochloric acid solution.
The aqueous acidic solution was extracted three times with each 5 ml of ether, and the ether extract was dried to solid. The solid material was subjected to esterification by a solution of diazomethane. The esterified reaction mixture was subjected to thin-layer chromatography and was developed with a 90:50:20:100 (by volume) mixed solvent of ethyl acetate:iso-octane:acetic acid:water. The identification of the thus appeared spots on the chromatogram was carried out by using the following authentic specimens of PGD2, PGE2, PGF2-α and 6-keto-PGF1-α. The silicagel layer of the separated chlomatogram was scraped out and dissolved into a liquid for the liquid scintillator to be counted. From the change of the counts the change of PGS was determined.

[2] = system: Salmonella typhimurium TA 98; experiment: Mutagenicity, reversion assay, TA 98; type: cell-based; settings: 5,000 μg/plate; control 13
Experimental: (§1) (ii) The strains TA 98 and TA 100 (both are histidine requiring) of Salmonella typhimurium were used in the reversion assay.
(§2) Into 2 ml of a soft agar culture medium (the medium itself contains 6 g of sodium chloride and 6 g of agar in 1000 ml of distilled water) to which one tenth by volume of an aqueous solution of 0.5 mM of biotin and 0.5 mM of histidine had been added, 0.1 ml of the bacterial suspension and 0.1 ml of an aqueous solution of the present substance were admixed and the mixture was layered on the minimum agar culture medium. After 2 days of incubation at 37° C., the number of revertant colonies was counted. Furylfuramide (AF-2) was used as the positive control.

[3] = system: Salmonella typhimurium TA 100; experiment: Mutagenicity, reversion assay, TA 100; type: cell-based; settings: 5,000 μg/plate; control 149
Experimental: as §1, §2

[4] = 1 hour after admin. Specimen, 100 mg/kg p.o., control 10
[5] = 1 hour after admin. Specimen, 100 mg/kg p.o., control 40.7
[6] = 2 hours after admin. pyrogen (before dosing)
[7] = before admin. pyrogen (before dosing)

SMILES	Content of 6-keto-PGF1-α in blood (male SHR rats) [ng/mL]	Blood pressure (male SHR rats) [mmHg]	Amount of PGE in c.s.f. (cats; [4])	Rectal temperature (cats; [5]) [°C]	Amount of PGE in c.s.f. (cats; [6])	Rectal temperature (cats; [6]) [°C]	Amount of PGE in c.s.f. (cats; [7])	Rectal temperature (cats; [7]) [°C]	Change of 6-keto-PGF1-α [1]	Change of PGD2 [1]	Change of PGE2 [1]	Change of PGF2-α [1]	Number of revertant colonies TA 98 [2] [number per plate]	Number of revertant colonies TA 100 [3] [number per plate]
O=C(O)c1ccc(NC2OC[C@@H](O)[C@H](O)[C@H]2O)cc1 (stereo partly drawn) [Specimen No. 7, Sodium p-aminobenzoate-N--D-xyloside]	6.5	160	6 ng/ml of c.s.f.	39.5	16 ng/ml of c.s.f.	41.1	2.4 ng/ml of c.s.f.	38.8	±	+	+	±	4	58
C[C@@H]1OC(Nc2ccc(C(=O)O)cc2)[C@H](O)[C@H](O)[C@H]1O (stereo partly drawn) [Specimen No. 8, Sodium p-aminobenzoate-N--L-rhamnoside]	7	150	8 ng/ml of c.s.f.	40.0	13 ng/ml of c.s.f.	41.5	–	39.1	–	–	–	–	4	73
O=C(O)c1ccc(NC2O[C@H](CO)[C@@H](O)[C@H](O)[C@@H]2O)cc1 (stereo partly drawn) [Specimen No. 4, Sodium p-aminobenzoate-N--D-mannoside]	7	155	5 ng/ml of c.s.f.	39.9	11 ng/ml of c.s.f.	41.3	2.6 ng/ml of c.s.f.	39.0	–	–	–	–	5	138
